The target of data set [1] is T1, p-tau (Homo sapiens, UniProt P10636).
T1 construct: made in house
The experiment in a line: Thioflavin-S (ThS) fluorescence assay of p-tau fibril formation. The class given is biochemical. The note with it: compound 100 μM, about 15x molar excess to p-tau. On the procedure: p-Tau from the stock solution of 1 mM was added to 20 mM Tris buffer (pH 7.4) with 1 mM DTT and transferred to a black microplate 384 well plate with flat bottom and medium binding (greiner bio-one, ref 784076). Each well contained a final volume of 10 μL with a peptide final concentration of 6 μM. Experiments in the presence of p-tau were initiated by adding a solution of ThS at a final concentration of 20 μM with different compounds. Final compound concentrations ranged from 25 to 100 μM. The background sample consisted of 0.1% DMSO in buffer without p-tau. The plate was sealed and read with the excitation and emission wavelengths set at 440 and 490 nm, respectively, with a Synergy HT multi-mode microplate reader (BioTek, Winooski, VT). Measurements were taken at 37° C. every 10 min for 16 hours. Samples were measured in three replicates and the experiments were repeated three times using different p-tau stock solutions. For each time point, arbitrary units of fluorescence were calculated from the mean values normalized against the maximum value in each completed assay. Arbitrarily, the maximum value (100%) for the fluorescence intensity was established for p-tau with 0.1% DMSO.
The structure of three newly synthesized small molecules representing the sulfonamide (JF-19-73), sulfonylurea (JF(Tr)-20-58), and urea (JF-19-43, JF(TT)-19-5) series are presented in FIG. 1. These molecules were assessed for their anti-aggregation and cytoprotection effects using biophysical methods and survival assays on human neuroblastoma SH-SY5Y cells, respectively. […] First, the formation of fibrils was monitored by measuring the fluorescence intensity of the dye thioflavin-S (ThS) with the excitation and emission wavelengths set at 440 and 490 nm. The fluorescent dye ThS specifically binds to the cross β-sheet structure of protein fibrils, providing a strong fluorescence emission.^[14] Since the fluorescence emission increases with fibrils formation, the kinetic process of fibrillization is routinely assessed using ThS fluorescence as the primary assays to screen for the candidate inhibitors. […]

In data set [2] the target is T1, p-tau. The experiment in a line: Photo-induced cross-linking (PICUP) assay of p-tau oligomerization. The class given is biochemical. The note with it: for inhibition of p-tau oligomer formation (cross-linking): p-tau 6 μM preincubated with compound 50 μM for 24 hours; for dose dependence of inhibition of p-tau oligomerization: dose response experiments, FIG. 3 lower panel (B). On the procedure:
p-Tau was diluted in 10 mM phosphate buffer (pH 7.4) at a final concentration of 10 μM and preincubated with different compounds for 24 h prior cross-linking. Different compounds were added to the p-tau solution at a final concentration of 12.5, 25, or 50 μM. The control consisted of samples without Ru(bpy), light exposition, and without compound. The reaction buffer consisted of 300 μM Ru(bpy), 6 mM ammonium persulfate. Prior light exposure, p-tau was diluted to a final concentration of 6 μM. Cross-linking was induced by irradiation, for 3 s, at a final volume of 20 μL, with a 53 W (120 V) incandescent lamp installed in a homemade dark-box. After irradiation, 8.3 μL of Lammeli loading buffer was immediately added to the solution, followed by incubation at 95° C. for 10 min. The cross-linked samples were separated on a 10% SDS-Page gel and visualized by Coomassie blue staining.
(§1) To examine how JF-19-73 affected p-tau fibrillization, two approaches were taken. Firstly, we used the Photo-Induced Cross-linking of Unmodified Proteins (PICUP) assay to investigate p-tau oligomerization under the influence of JF19-73 (FIG. 3). After being subjected to short light exposure, p-tau was cross-linked and resolved as a smear of higher molecular weight (lane 3, FIG. 3).^[6c] […] We further perform transmission electron microscopy to visualize the extent and morphology of p-tau fibrils.

The test system of data set [3] is SH-SY5Y cells. Description: Cell viability assay, protection from aggregated p-tau and compound toxicity. The class given is cell-based, human. The note with it: for protection of SH-SY5Y cells against p-tau cytotoxicity: 0.8 μM p-tau, compound 8 μM (molar ratio 1:10). The method, then:
Cells were maintained in a 37° C., 5% CO2 incubator, in exponential growth, for the duration of experimentation. For this assay, cells were seeded in 96-well microtiter plates at a density of 5×10^3 SH-SY5Y cells per well for 24 h. Compounds freshly solubilized in DMSO were diluted in culture medium and aliquots containing sequential dilution of drugs were added subsequently after stimulation with 2 μM of p-tau. p-Tau was dissolved and incubated in 10 mM PBS (pH 7.4, 25° C.) 24 h before addition to cells. Compounds were tested at 2, 4, and 8 μM and DMSO concentration was maintained at 0.1% to avoid growth inhibition. […] Plates were incubated for 24 h in the presence of compounds and p-Tau. Cell-based assays were performed as previously described ((Liu et al, 2020, Sci. Rep. Hyperphosphorylated tau aggregation and cytotoxicity modulators screen identified prescription drugs linked to Alzheimer's disease and cognitive functions. Liu M, Dexheimer T, Sui D, Hovde S, Deng X, Kwok R, Bochar D A, Kuo M H. Sci Rep. 2020 Oct. 6; 10(1):16551. doi: 10.1038/s41598-020-73680-2.). The cell viability was calculated from fluorescence measured with a Synergy HT multi-mode microplate reader (BioTek, Winooski, VT). The data from experiments conducted in triplicate were corrected for the background fluorescence of the medium and was expressed as the mean percentage of fluorescence obtained for control DMSO-treated cells. The growth inhibition percentage was calculated with reference to DMSO-treated cells for each compound concentration. The results were obtained from at least three separated experiments. The cell viability assay was considered valid when the variability among data for a given set of conditions, within the same experiment, was less than 10% with respect to the mean value. All values represent means±SD (n=3).
Cell viability assays were performed using SH-SY5Y cells to evaluate the potential of the molecules representing the sulfonamide, sulfonylurea, and urea series to protect cells from aggregated p-tau (FIG. 5). The survival rate was assessed after treatment with 0.8 μM p-tau in the absence or the presence of JF-19-73, JF-19-43 (urea), JF(TT)-20-58 at 8 μM. […] It has been reported previously (Liu et al, 2020, Sci. Rep. Hyperphosphorylated tau aggregation and cytotoxicity modulators screen identified prescription drugs linked to Alzheimer's disease and cognitive functions. Liu M, Dexheimer T, Sui D, Hovde S, Deng X, Kwok R, Bochar D A, Kuo M H. Sci Rep. 2020 Oct. 6; 10(1):16551. doi: 10.1038/s41598-020-73680-2.) that not all effective p-tau aggregation inhibitors, as indicated by significant reductions in ThSmax, were cytoprotective.

The target in data set [4] is T1, p-tau. Description: Transmission electron microscopy of p-tau fibrils. The class given is biochemical. To be noted: p-tau 20 μM, compound 100 μM, 24 hours, vs. DMSO. On the procedure: […] A volume of 10 μL was applied on a 400-mesh Formvar-carbon-coated cooper grid (Electron Microscopy Sciences, Hatfield, PA) to confirm the presence or the absence of fibrils. The grids were incubated for 1 minute and washed three times with distilled water. They were carefully air-dried and incubated for 1 minute in a fresh solution of 1% uranyl acetate. Samples were air-dried and observed using a transmission microscope (JEOL 1400 Flash, Japan). Pictures were acquired at an accelerating voltage of 100 kV and magnification of 40 and 80 k.
as §1

Data set [5] in a line: Solubility in aqueous phase. The class given is physicochemical.

Entries after “also recorded” stand apart in the source; their conditions may differ. Some results are limits rather than exact numbers.

T1 sequence (P10636 1-412 isoform P10636-7): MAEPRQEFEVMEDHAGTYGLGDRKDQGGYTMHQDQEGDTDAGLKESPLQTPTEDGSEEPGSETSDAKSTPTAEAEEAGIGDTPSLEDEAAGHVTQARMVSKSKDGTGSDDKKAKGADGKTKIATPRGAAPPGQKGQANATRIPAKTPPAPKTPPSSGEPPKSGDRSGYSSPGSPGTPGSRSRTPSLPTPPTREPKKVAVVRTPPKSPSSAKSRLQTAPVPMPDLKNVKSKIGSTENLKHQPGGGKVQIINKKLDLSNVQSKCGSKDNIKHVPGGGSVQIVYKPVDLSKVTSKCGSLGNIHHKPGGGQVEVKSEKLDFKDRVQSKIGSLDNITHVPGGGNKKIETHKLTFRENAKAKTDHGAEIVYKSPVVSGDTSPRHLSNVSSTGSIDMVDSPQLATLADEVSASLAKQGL

In the case of `O=C(Nc1ccc(Cl)cc1)Nc1ccc2c(c1)Cc1ccccc1-2` [JF(NBMI)-20-45], the “inhibition of p-tau fibril formation (ThS fluorescence intensity, ThSmax)” value (from here on “inhibition of p-tau fibril formation”) in data set [1] is reported as “not a potent inhibitor of p-tau aggregation”.

In the case of `O=C(Nc1ccc2c(c1)Cc1ccccc1-2)NS(=O)(=O)c1ccc(Cl)cc1` [JF(TT)-20-58], the “inhibition of p-tau fibril formation” value in data set [1] is recorded as “not a potent inhibitor of p-tau aggregation”. Further, the “inhibition of p-tau oligomer formation (cross-linking)” value is recorded as “high molecular weight p-tau oligomers” in data set [2] and “had no effect” in data set [2] (listed as JF(T)-19-58). Besides, in data set [3], the “protection of SH-SY5Y cells against p-tau cytotoxicity” value is reported as “negative controls”.

Take `O=C(Nc1ccccc1)Nc1ccc2c(c1)Cc1ccccc1-2` [JF(TT)-19-5]: in data set [2], the “dose dependence of inhibition of p-tau oligomerization” value was “negative control” and the “inhibition of p-tau oligomer formation (cross-linking)” value was “had no effect”.

As to `O=S(=O)(Nc1ccc2c(c1)Cc1ccccc1-2)c1ccc(Cl)cc1` [JF-19-73], the “inhibition of p-tau fibril formation” value in data set [1] is listed as “inhibits fibril; also recorded: most potent to inhibit fibril formation”. Besides, in data set [2], the “dose dependence of inhibition of p-tau oligomerization” value is “dose-dependent manner”; the “inhibition of p-tau oligomer formation (cross-linking)” value is “inhibits fibril (ThSmax) and oligomer (Oligo. Inh.) formation; also recorded: stopped formation of p-tau oligomers; also recorded: effectively prevented this crosslinking”. Further, the “p-tau fibril formation by TEM” value in data set [4] is “less fibrils; also recorded: clear effects on p-tau fibrillization”. The “protection of SH-SY5Y cells against p-tau cytotoxicity” value in data set [3] is listed as “protects SH-SY5Y cells against p-tau”. Also, the “toxicity of compound to SH-SY5Y cells” value in data set [3] (compound 8 μM without p-tau) is given as “non-toxic to cells”. Further, the “protection against p-tau cytotoxicity, dose dependence” value in data set [3] (compound 2, 4 and 8 μM) is on record as “protected cell in a dose-dependent manner”. In addition, the “solubility (S) in aqueous phase” value in data set [5] was over 100 µM.

With `CCNC(=O)Nc1ccc2c(c1)Cc1ccccc1-2` [JF-19-43], the “inhibition of p-tau oligomer formation (cross-linking)” value is reported as “had no effect” in data set [2] and “high molecular weight p-tau oligomers” in data set [2] (listed as JF19-43). Further, the “protection of SH-SY5Y cells against p-tau cytotoxicity” value in data set [3] was “negative controls”.

Source of the values: patent publication US20240376062A1, “COMPOUNDS FOR THE TREATMENT OF ALZHEIMER’S DISEASE” (BOARD OF TRUSTEES OF MICHIGAN STATE UNIVERSITY, priority 2021, published 2024).
